According to ChEMBL document CHEMBL5316282, “Small-Molecule Cyanamide Pan-TEAD·YAP1 Covalent Antagonists” (J Med Chem, 2023):
Blank lines part the entries; values can stand above or below the compound they belong to. Activity calls are given as the source filed them. No cut-off for these calls is given here.

Assays:
[1] = biological target: T1, Transcriptional enhancer factor TEF-1 (Homo sapiens, UniProt P28347); assay: Displacement of FAM- labeled YAP1 peptide (60 to 99 residues) from human TEAD1 (209 to 426 residues) expressed in Escherichia coli BL21 (DE3) cells incubated for 24 hrs by fluorescence polarization-based competitive binding assay; conditions: read-out: IC50
[2] = biological target: T2, Transcriptional enhancer factor TEF-4 (Homo sapiens, UniProt Q15562); assay: Displacement of FAM- labeled YAP1 peptide (60 to 99 residues) from human TEAD2 (217 to 447 residues) expressed in Escherichia coli BL21 (DE3) cells incubated for 24 hrs by fluorescence polarization-based competitive binding assay
[3] = biological target: T3, Transcriptional enhancer factor TEF-5 (Homo sapiens, UniProt Q99594); assay: Displacement of FAM- labeled YAP1 peptide (60 to 99 residues) from human TEAD3 (210 to 427 residues) expressed in Escherichia coli BL21 (DE3) cells incubated for 24 hrs by fluorescence polarization-based competitive binding assay
[4] = biological target: T4, Transcriptional enhancer factor TEF-3 (Homo sapiens, UniProt Q15561); assay: Displacement of FAM- labeled YAP1 peptide (60 to 99 residues) from human TEAD4 (217 to 434 residues) expressed in Escherichia coli BL21 (DE3) cells incubated for 24 hrs by fluorescence polarization-based competitive binding assay; conditions: read-out: IC50
[5] = biological target: T2, Transcriptional enhancer factor TEF-4; assay: Displacement of FAM- labeled YAP1 peptide (60 to 99 residues) from human TEAD2 (217 to 447 residues) expressed in Escherichia coli BL21 (DE3) cells assessed as maximum inhibition at 0.2 to 100 uM incubated for 24 hrs by fluorescence polarization-based competitive binding assay relative to control; conditions: dose 0.2-100 µM
[6] = tested on: Transcriptional enhancer factor TEF-3 (Homo sapiens), Q15561 [C367S]; assay: Displacement of FAM- labeled YAP1 peptide (60 to 99 residues) from human TEAD4 (217 to 434 residues) C367S mutant expressed in Escherichia coli BL21 (DE3) cells at 0.2 to 100 uM incubated for 24 hrs by fluorescence polarization-based competitive binding assay; conditions: dose 0.2-100 µM
[7] = Inhibition of TEAD in human MDA-MB-468 cells assessed as inhibition of CTGF transcriptional level incubated for 24 hrs by qRT-PCR assay; format: cell-based; conditions: Homo sapiens, MDA-MB-468, 24 h; read-out: IC50
MDA-MB-468 [8] = assay: Inhibition of TEAD in human MDA-MB-468 cells assessed as maximal inhibition of CTGF transcriptional level at 0.01 to 100 uM incubated for 24 hrs by qRT-PCR assay relative to control; format: cell-based; conditions: dose 0.01-100 µM
[9] = biological target: T4, Transcriptional enhancer factor TEF-3; assay: Inhibition of TEAD4 (unknown origin) transfected in human HEK293 cells co-transfected with renilla plasmid assessed as inhibition of transcriptional activity incubated for 24 hrs by dual Glo-luciferase reporter assay; format: cell-based; conditions: read-out: IC50
[10] = biological target: T4, Transcriptional enhancer factor TEF-3; assay: Inhibition of TEAD4 (unknown origin) transfected in human HEK293 cells co-transfected with renilla plasmid assessed as maximum inhibition of transcriptional activity at 0.01 to 100 uM incubated for 24 hrs by dual Glo-luciferase reporter assay relative to control; format: cell-based; conditions: dose 0.01-100 µM
[11] = biological target: T1, Transcriptional enhancer factor TEF-1; assay: Inhibition of TEAD1 (unknown origin) transfected in human HEK293 cells co-transfected with renilla plasmid assessed as maximum inhibition of transcriptional activity at 10 uM incubated for 24 hrs by dual Glo-luciferase reporter assay relative to control; format: cell-based
[12] = biological target: T2, Transcriptional enhancer factor TEF-4; assay: Inhibition of TEAD2 (unknown origin) transfected in human HEK293 cells co-transfected with renilla plasmid assessed as maximum inhibition of transcriptional activity at 10 uM incubated for 24 hrs by dual Glo-luciferase reporter assay relative to control; format: cell-based
[13] = biological target: T4, Transcriptional enhancer factor TEF-3; assay: Displacement of FAM- labeled YAP1 peptide (60 to 99 residues) from human TEAD4 (217 to 434 residues) expressed in Escherichia coli BL21 (DE3) cells at 100 uM incubated for 24 hrs followed by dialysis buffer for 24 hrs
[14] = biological target: T1, Transcriptional enhancer factor TEF-1; assay: Inhibition of TEAD1 (unknown origin) transfected in human HEK293 cells co-transfected with renilla plasmid assessed as inhibition of transcriptional activity incubated for 24 hrs by dual Glo-luciferase reporter assay; format: cell-based
[15] = biological target: T2, Transcriptional enhancer factor TEF-4; assay: Inhibition of TEAD2 (unknown origin) transfected in human HEK293 cells co-transfected with renilla plasmid assessed as inhibition of transcriptional activity incubated for 24 hrs by dual Glo-luciferase reporter assay; format: cell-based
[16] = biological target: T3, Transcriptional enhancer factor TEF-5; assay: Inhibition of TEAD3 (unknown origin) transfected in human HEK293 cells co-transfected with renilla plasmid assessed as inhibition of transcriptional activity incubated for 24 hrs by dual Glo-luciferase reporter assay; format: cell-based
MDA-MB-468 [17] = assay: Antiproliferative activity against human MDA-MB-468 cells assessed as reduction in cell viability incubated for 3 days by MTS assay; format: functional, cell-based
[18] = biological target: T5, Transcriptional coactivator YAP1/Transcriptional enhancer factor TEF-1 (Homo sapiens) (UniProt P46937+P28347); assay: Inhibition of NanoLuc-tagged TEAD1 (unknown origin)-Halo-Tagged YAP1 (unknown origin) protein-protein interaction transfected in HEK293 cells using furimazine as substrate at 1.1 to 30 uM incubated for 24 hrs by NanoBRET binding assay; format: cell-based; conditions: dose 1.1-30 µM
[19] = biological target: T6, YAP1-TEAD4 (Homo sapiens) (UniProt P46937+Q15561); assay: Inhibition of NanoLuc-tagged TEAD4 (unknown origin)-Halo-Tagged YAP1 (unknown origin) protein-protein interaction transfected in HEK293 cells using furimazine as substrate at 1.1 to 30 uM incubated for 24 hrs by NanoBRET binding assay; format: cell-based; conditions: dose 1.1-30 µM
[20] = biological target: T5, Transcriptional coactivator YAP1/Transcriptional enhancer factor TEF-1 (Homo sapiens); assay: Inhibition of NanoLuc-tagged TEAD1 (unknown origin)-Halo-Tagged YAP1 (unknown origin) protein-protein interaction transfected in HEK293 cells using furimazine as substrate at 10 uM incubated for 2 to 24 hrs by NanoBRET binding assay; format: cell-based; conditions: time 2-24 hrs, TDE = time-dependent effect
[21] = biological target: T6, YAP1-TEAD4 (Homo sapiens); assay: Inhibition of NanoLuc-tagged TEAD4 (unknown origin)-Halo-Tagged YAP1 (unknown origin) protein-protein interaction transfected in HEK293 cells using furimazine as substrate at 10 uM incubated for 2 to 24 hrs by NanoBRET binding assay; format: cell-based; conditions: time 2-24 hrs, TDE = time-dependent effect
[22] = biological target: T6, YAP1-TEAD4 (Homo sapiens); assay: Inhibition of NanoLuc-tagged TEAD4 (unknown origin)-Halo-Tagged YAP1 (unknown origin) protein-protein interaction transfected in HEK293 cells using furimazine as substrate at 0.9 to 30 uM incubated for 24 hrs by NanoBRET binding assay; format: cell-based; conditions: dose 0.9-30 µM
[23] = biological target: T6, YAP1-TEAD4 (Homo sapiens); assay: Inhibition of myc-tagged TEAD4 (unknown origin)-Flag-Tagged YAP1 (unknown origin) protein-protein interaction transfected in HEK293 cells using furimazine as substrate at 1.1 to 11 uM incubated for 24 hrs by pull-down coimmunoprecipitation assay; format: cell-based; conditions: dose 1.1-11 µM
[24] = Antiproliferative activity against human 90-8 cells assessed as reduction in cell viability incubated for 3 days by MTS assay; format: functional, cell-based; conditions: 90-8, 72 h
[25] = Antiproliferative activity against human ST88-14 cells assessed as reduction in cell viability incubated for 3 days by MTS assay; format: functional, cell-based; conditions: ST88-14, 72 h
SAOS-2 [26] = assay: Antiproliferative activity against human SAOS-2 cells assessed as reduction in cell viability incubated for 3 days by MTS assay; format: functional, cell-based; conditions: SAOS-2, 72 h
[27] = Antiproliferative activity against human SaOS-LM7 cells assessed as reduction in cell viability incubated for 3 days by MTS assay; format: functional, cell-based; conditions: SaOS-LM7, 72 h
Huh-7 [28] = assay: Antiproliferative activity against human Huh-7 cells assessed as reduction in cell viability incubated for 3 days by MTS assay; format: functional, cell-based; conditions: Huh-7, 72 h
MDA-MB-468 [29] = assay: Antiproliferative activity against human MDA-MB-468 cells assessed as maximum inhibition of cell viability incubated for 3 days by MTS assay relative to control; format: functional, cell-based; conditions: time 3.0 day
[30] = Antiproliferative activity against human 90-8 cells assessed as maximum inhibition of cell viability incubated for 3 days by MTS assay relative to control; format: functional; conditions: time 3 day
[31] = Antiproliferative activity against human ST88-14 cells assessed as maximum inhibition of cell viability incubated for 3 days by MTS assay relative to control; format: functional; conditions: time 3 day
SAOS-2 [32] = assay: Antiproliferative activity against human SAOS-2 cells assessed as maximum inhibition of cell viability incubated for 3 days by MTS assay relative to control; format: functional; conditions: time 3 day
[33] = Antiproliferative activity against human SaOS-LM7 cells assessed as maximum inhibition of cell viability incubated for 3 days by MTS assay relative to control; format: functional; conditions: time 3 day
Huh-7 [34] = assay: Antiproliferative activity against human Huh-7 cells assessed as maximum inhibition of cell viability incubated for 3 days by MTS assay relative to control; format: functional; conditions: time 3 day
[35] = biological target: T1, Transcriptional enhancer factor TEF-1; assay: Inhibition of TEAD1 (unknown origin) transfected in human HEK293 cells co-transfected with renilla plasmid assessed as maximum inhibition of transcriptional activity at 0.1 to 10 uM incubated for 24 hrs by dual Glo-luciferase reporter assay relative to control; format: cell-based; conditions: dose 0.1-10 µM
[36] = biological target: T2, Transcriptional enhancer factor TEF-4; assay: Inhibition of TEAD2 (unknown origin) transfected in human HEK293 cells co-transfected with renilla plasmid assessed as maximum inhibition of transcriptional activity at 0.1 to 10 uM incubated for 24 hrs by dual Glo-luciferase reporter assay relative to control; format: cell-based; conditions: dose 0.1-10 µM
[37] = biological target: T4, Transcriptional enhancer factor TEF-3; assay: Inhibition of TEAD4 (unknown origin) transfected in human HEK293 cells co-transfected with renilla plasmid assessed as maximum inhibition of transcriptional activity at 0.1 to 10 uM incubated for 24 hrs by dual Glo-luciferase reporter assay relative to control; format: cell-based; conditions: dose 0.1-10 µM

T3 sequence (Q99594 whole entry, the tested form may be a part): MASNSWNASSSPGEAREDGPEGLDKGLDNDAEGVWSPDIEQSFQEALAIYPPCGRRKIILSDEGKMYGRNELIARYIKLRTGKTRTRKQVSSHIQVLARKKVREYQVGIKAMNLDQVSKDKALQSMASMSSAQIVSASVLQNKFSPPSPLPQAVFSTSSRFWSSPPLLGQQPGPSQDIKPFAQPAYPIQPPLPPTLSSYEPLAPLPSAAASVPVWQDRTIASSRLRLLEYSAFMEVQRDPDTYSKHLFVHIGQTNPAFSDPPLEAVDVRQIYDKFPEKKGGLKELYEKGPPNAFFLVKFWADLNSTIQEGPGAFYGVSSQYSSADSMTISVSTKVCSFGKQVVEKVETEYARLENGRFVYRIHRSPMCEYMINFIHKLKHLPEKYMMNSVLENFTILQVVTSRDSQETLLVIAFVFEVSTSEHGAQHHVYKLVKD
T2 sequence (Q15562 whole entry, the tested form may be a part): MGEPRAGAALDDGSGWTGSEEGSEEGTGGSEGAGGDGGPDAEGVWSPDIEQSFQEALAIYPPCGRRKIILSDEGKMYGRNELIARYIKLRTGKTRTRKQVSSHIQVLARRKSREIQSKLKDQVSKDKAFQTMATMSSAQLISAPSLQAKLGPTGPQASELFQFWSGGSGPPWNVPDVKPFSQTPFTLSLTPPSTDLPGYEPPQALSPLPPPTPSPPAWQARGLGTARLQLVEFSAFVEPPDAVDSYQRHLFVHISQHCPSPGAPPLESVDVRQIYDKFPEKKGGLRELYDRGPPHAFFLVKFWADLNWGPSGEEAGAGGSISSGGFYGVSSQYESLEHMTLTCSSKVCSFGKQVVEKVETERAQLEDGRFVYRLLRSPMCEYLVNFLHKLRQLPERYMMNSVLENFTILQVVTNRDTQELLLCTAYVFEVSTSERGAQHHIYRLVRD
T1 sequence (P28347 whole entry, the tested form may be a part): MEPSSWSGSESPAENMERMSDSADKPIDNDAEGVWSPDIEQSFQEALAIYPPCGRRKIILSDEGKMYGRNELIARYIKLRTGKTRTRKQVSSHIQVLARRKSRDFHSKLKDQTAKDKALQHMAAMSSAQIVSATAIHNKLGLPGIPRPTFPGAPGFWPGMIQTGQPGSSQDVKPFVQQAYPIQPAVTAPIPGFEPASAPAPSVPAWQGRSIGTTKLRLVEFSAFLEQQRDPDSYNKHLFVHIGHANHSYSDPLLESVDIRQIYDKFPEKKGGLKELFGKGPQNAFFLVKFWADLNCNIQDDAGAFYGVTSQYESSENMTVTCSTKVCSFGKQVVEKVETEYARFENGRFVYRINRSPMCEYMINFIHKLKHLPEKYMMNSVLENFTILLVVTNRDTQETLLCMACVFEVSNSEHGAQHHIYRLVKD
Sequence of Transcriptional enhancer factor TEF-3 (Homo sapiens), Q15561 [C367S] (Q15561 whole entry C367S, the tested form may be a part): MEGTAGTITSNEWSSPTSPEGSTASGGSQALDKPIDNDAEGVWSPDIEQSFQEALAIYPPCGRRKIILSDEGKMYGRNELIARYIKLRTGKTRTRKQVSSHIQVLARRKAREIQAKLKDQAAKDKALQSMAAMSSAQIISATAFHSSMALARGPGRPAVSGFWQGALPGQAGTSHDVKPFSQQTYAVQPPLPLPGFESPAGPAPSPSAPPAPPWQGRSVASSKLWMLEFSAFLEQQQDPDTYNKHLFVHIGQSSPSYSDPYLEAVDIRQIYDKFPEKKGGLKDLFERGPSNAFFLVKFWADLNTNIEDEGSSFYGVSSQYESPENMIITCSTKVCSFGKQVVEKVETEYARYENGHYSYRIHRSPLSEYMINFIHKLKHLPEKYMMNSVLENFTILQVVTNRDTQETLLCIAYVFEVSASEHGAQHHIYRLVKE
T4 sequence (Q15561 whole entry, the tested form may be a part): as the sequence (Q15561 whole entry C367S, the tested form may be a part) above, with S367C counted along it
T5 sequence (P28347 whole entry, looked up): as the sequence (P28347 whole entry, the tested form may be a part) above
T5 sequence (P46937 whole entry, looked up): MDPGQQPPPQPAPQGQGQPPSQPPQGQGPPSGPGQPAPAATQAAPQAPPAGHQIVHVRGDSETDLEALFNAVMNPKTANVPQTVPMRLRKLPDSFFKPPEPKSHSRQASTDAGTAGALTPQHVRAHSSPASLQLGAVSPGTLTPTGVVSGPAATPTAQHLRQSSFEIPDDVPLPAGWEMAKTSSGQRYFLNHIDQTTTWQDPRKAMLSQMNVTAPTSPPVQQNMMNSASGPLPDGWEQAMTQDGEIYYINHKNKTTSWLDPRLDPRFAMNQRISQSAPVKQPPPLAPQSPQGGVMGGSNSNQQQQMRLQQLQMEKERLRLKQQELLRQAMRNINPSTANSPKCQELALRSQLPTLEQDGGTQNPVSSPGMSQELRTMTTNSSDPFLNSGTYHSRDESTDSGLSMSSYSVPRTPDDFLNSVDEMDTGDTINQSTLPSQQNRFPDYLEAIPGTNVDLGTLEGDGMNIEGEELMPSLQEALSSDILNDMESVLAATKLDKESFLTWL

- IC50 [1]: 1.3 µM
- IC50 [2]: 2.1 µM
- IC50 [3]: Not Active
- IC50 [4]: 5.4 µM
- Imax [5]: 40%
- inhibition [6]: inactive
- IC50 [7]: 5.5 µM
- IC50 [9]: 10.5 µM
- Imax [10]: 98.7%
Structure (SMILES): N#CN1Cc2cccc(Nc3ccccc3C(F)(F)F)c2C1
- Imax (MDA-MB-468 [8]): 36.7%

- IC50 [1]: 0.2 µM
- IC50 [2]: 2.4 µM
- IC50 [3]: Not Active
- IC50 [4]: 0.6 µM
- Imax [5]: 37%
- inhibition [6]: inactive
- IC50 [7]: 0.3 µM
- IC50 [9]: 0.7 µM
- Imax [10]: 35.6%
- inhibition [11]: Active
- inhibition [12]: Active
Structure (SMILES): N#CN1Cc2ccc(F)c(Nc3cccc(C(F)(F)F)c3)c2C1
- Imax (MDA-MB-468 [8]): 50.3%

- IC50 [1]: 0.3 µM
- IC50 [2]: 1.7 µM
- IC50 [3]: Not Active
- IC50 [4]: 0.2 µM
- Imax [5]: 42%
- inhibition [6]: inactive
- IC50 [7]: 0.3 µM
- IC50 [9]: 0.3 µM
- Imax [10]: 41.3%
- inhibition [11]: inactive
- inhibition [12]: 50%
Structure (SMILES): COc1ccc2c(c1Nc1cccc(C(F)(F)F)c1)CN(C#N)C2
- Imax (MDA-MB-468 [8]): 45.3%

- IC50 [1]: 0.9 µM
- IC50 [2]: 1.2 µM
- IC50 [3]: Not Active
- IC50 [4]: 1.1 µM
- Imax [5]: 34%
- inhibition [6]: inactive
- inhibition [13]: Active
- IC50 [7]: 0.6 µM
- IC50 [9]: 5 µM
- Imax [10]: 46.6%
- inhibition [11]: 40%
- inhibition [12]: 40%
- IC50 [14]: 5.1 µM
- IC50 [15]: 2.7 µM
- IC50 [16]: 2.2 µM
- IC50 (MDA-MB-468 [17]): Not Active
- inhibition [18]: Active
- inhibition [19]: Active
- inhibition [20]: Tde
- inhibition [21]: Tde
- inhibition [22]: Active
- inhibition [23]: Dose-Dependent Effect
- IC50 (Huh-7 [28]): 0.1 µM
- Imax [35]: 51.2%
- Imax [36]: 42.7%
- Imax [37]: 61.8%
Structure (SMILES): N#CN1Cc2cccc(Nc3cccc(C(F)(F)F)c3)c2C1
- Imax (MDA-MB-468 [8]): 65.7%
- IC50 [24]: 3.5 µM
- IC50 [25]: 0.03 µM
- IC50 (SAOS-2 [26]): 0.1 µM
- IC50 [27]: 0.2 µM
- Imax (MDA-MB-468 [29]): inactive
- Imax [30]: 51.4%
- Imax [31]: 31%
- Imax (SAOS-2 [32]): 53.4%
- Imax [33]: 60.7%
- Imax (Huh-7 [34]): 48.3%
